Results as given in patent US20240336638A1, “IMIDAZOLE COMPOUND, AND INTERMEDIATE AND APPLICATION THEREOF” (priority 2021, published 2024).
Like-named read-outs stand apart in the source and are kept apart here.

Experiments:
[1] = test system: MCAO/R rats; assay: Therapeutic administration (i.v.) in middle cerebral artery occlusion/reperfusion (MCAO/R) rats; type: in vivo, rat; conditions: for Bleeding time / Brain water content (%) / Cerebral infarction rate (%) / Clotting time / Neurological function score: once a day for 3 days, mean ± SD, n = 8; for Neurological function score: modified Bederson score
Protocol: Male SD rats weighing 250 to 300 g were taken, and the rats in each group fasted for 12 hours before modeling, while water was not restricted. According to the method of Longa et al.^[1], a rat model of MCAO/R was established by occluding the blood flow of internal carotid artery using the thread embolization method. The rats were anesthetized with 3% chloral hydrate (300 mg/kg, 1 mL/100 g body weight) through intraperitoneal injection and fixed in the supine position on the operating table. A midline incision was made in the neck, and the right common carotid artery was isolated using forceps and threaded for later use. The external and internal carotid arteries were isolated from the bifurcation of the common carotid artery. A single thread was threaded through the internal carotid artery, and two threads were threaded through the external carotid artery. Both distal and proximal ends were ligated, and the middle part of the ligation site was cut using ophthalmic scissors. The proximal main trunk of the external carotid artery was isolated and reserved for later use. The prepared cotton thread was used to half-ligate the common carotid artery (tying a slipknot), and the thread prepared for the internal carotid artery was tightened with hemostatic forceps, temporarily occluding the blood flow of the internal carotid artery. A small incision at the proximal main trunk of the external carotid artery was made using ophthalmic scissors, and then, the fishing line was held with straight forceps, inserted from this incision, and slowly advanced through the isolated proximal main trunk of the external carotid artery towards the intracranial direction of the internal carotid artery. The advancement was stopped at a predetermined position, and then the thread of the internal carotid artery that was tightened with the hemostatic forceps was loosened. […] Another thread was threaded and tightened around the proximal main trunk of the external carotid artery and the fishing line that had already been inserted into the predetermined position. The half-ligated thread on the common carotid artery was then loosened, and the skin was subsequently sutured. After 2 hours of ischemia, a small section of the fishing line was pulled out. […] After rats in the blank control group were anesthetized, only the bifurcation of the internal and external carotid arteries was exposed without the occlusion of the MCA.
Successfully modeled rats (neurological function score of 3 after reperfusion) were taken and divided into 20 groups (8 rats for each) according to the random number table method. The groups were divided into a model control group, three dose groups (high, 12 mg/kg, 2.4 mg/mL; medium, 6 mg/kg, 1.2 mg/mL; low, 3 mg/kg, 0.6 mg/mL) for each of the six test compounds, and a positive drug Ozagrel group (6 mg/kg, 1.2 mg/mL), respectively. Both blank and model control groups were administered equal volumes of mixed solvents, and the rats in each group were administered by tail vein injection (i.v.) 2 hours after reperfusion, once a day for 3 consecutive days, with a volume of 0.5 mL/100 g body weight.
Ten minutes after the last administration, the neurological function of the animals was graded according to the modified Bederson scoring method. The standard is as follows[2]: • 0 point: no neurological symptoms; • 1 point: when the rat is suspended by lifting its tail, the forelimb on the surgical side of the rat was flexed and pressed against the chest wall; • 2 points: on a smooth plane, when the rat is pushed from the surgical side to the opposite side, the resistance is less than when it is moved to the same side; • 3 points: the animal moves around or in circles when moving freely; • 4 points: flaccid paralysis, no spontaneous movement of limbs.
After Bederson scoring, the rats were executed by cervical dislocation, and the whole brain was removed and weighed. After weighing, the whole brain was placed in a −20° C. refrigerator for 20 minutes. […]

[2] = Blood-brain barrier (BBB) study in SD rats after single IV and PO administration, brain; type: in vivo; conditions: for Cmax / Tmax / half-life / MRT last / MRT inf: Sprague-Dawley (SD); for Cmax / Tmax / half-life / MRT last / MRT inf / AUC(0−t) / AUC(0−∞): rat brain; for MRT last: read-out: MRT(0−t); for MRT inf: read-out: MRT(0−∞); for T1/2 and AUC(0-∞) in the brain tissue: compared to Ozagrel
Protocol: Effect Example 3: Pharmacokinetic and blood-brain barrier (BBB) studies of compounds after single intravenous (IV) and oral (PO) administration in SD rats
(§1) The experimental method of administration by gavage injection in rats: SD rats weighing 180 to 220 g were fasted for 12 hours prior to the experiment, with free access to water. After administration, food and water were withheld for 4 hours. After this 4-hour period, the rats were allowed free access to water, and food was provided after 8 hours. The drugs were administered at a set dose. N=3, blood samples were taken before administration, and 5 minutes, 0.25 hours, 0.5 hours, 0.75 hours, 1 hour, 2 hours, 4 hours, 8 hours, and 24 hours after administration, respectively, and placed into sodium heparin anticoagulant tubes. The tubes were centrifuged for 1 hour at 4° C. and at 8000 rpm for 5 minutes, and the plasma was then separated and stored in centrifuge tubes at −70° C. for analysis.
as §1, with “of intravenous” for “of”, “to” for “by gavage injection in”
The plasma concentration-time data were processed using the Phoenix® WinNonlin® 8.0 program to calculate pharmacokinetic parameters.
Among them, Cmax and Tmax are measured values, the elimination rate constant k of the tail section of the C-t curve is obtained from the linear regression of LnC-t, and the value of AUC0-4 is calculated by the trapezoidal area method, and the area under the curve from 0 to ∞ time is AUC=AUC0-4+Ct/k.

[3] = medium dose 6 mg/kg i.v. (Ozagrel group 6 mg/kg)

O=C(O)[C@@H]1C[C@H]1c1ccc(Cn2cnc(F)c2)c(Cl)c1 [Compound 18, (1R,2R)-2-(3-Chloro-4-((4-fluoro-1H-imidazol-1-yl)methyl)phenyl)cyclopropane-1-carboxylic acid]
Bleeding time ([1]; high dose 12 mg/kg i.v.): 330.25 ± 50.14 s
Brain water content (%) ([1]; high dose 12 mg/kg i.v.): 80.54 ± 1.62%
Cerebral infarction rate (%) ([1]; high dose 12 mg/kg i.v.): 17.78%
Clotting time ([1]; high dose 12 mg/kg i.v.): 147.25 ± 13.30 s
Neurological function score ([1]; high dose 12 mg/kg i.v.): 1.63 ± 0.52
Bleeding time ([1]; low dose 3 mg/kg i.v.): 267.38 ± 50.19 s
Brain water content (%) ([1]; low dose 3 mg/kg i.v.): 80.64 ± 2.21%
Cerebral infarction rate (%) ([1]; low dose 3 mg/kg i.v.): 26.58 ± 4.57%
Clotting time ([1]; low dose 3 mg/kg i.v.): 152.38 ± 28.67 s
Neurological function score ([1]; low dose 3 mg/kg i.v.): 2.25 ± 0.46
Bleeding time [1, 3]: 271.63 ± 40.55 s
Brain water content (%) [1, 3]: 80.95 ± 1.79%
Cerebral infarction rate (%) [1, 3]: 20.75%
Clotting time [1, 3]: 158.19 ± 19.62 s
Neurological function score [1, 3]: 1.88 ± 0.83
Cmax ([2]; IV 1 mg/kg): 75.5 ng/g
Tmax ([2]; IV 1 mg/kg): 4.8 min
half-life ([2]; IV 1 mg/kg): 522 min
MRT last ([2]; IV 1 mg/kg): 7.19 h
MRT inf ([2]; IV 1 mg/kg): 11.5 h
Cmax ([2]; PO 6 mg/kg): 460 ng/g
Tmax ([2]; PO 6 mg/kg): 60 min
half-life ([2]; PO 6 mg/kg): 502 min
MRT last ([2]; PO 6 mg/kg): 7.84 h
MRT inf ([2]; PO 6 mg/kg): 11.7 h
T1/2 and AUC(0-∞) in the brain tissue ([2]; intravenously at 1 mg/kg): significantly increased
T1/2 and AUC(0-∞) in the brain tissue ([2]; orally at 6 mg/kg): significantly increased
AUC(0−t) ([2]; IV 1 mg/kg): 633.23 ng·h/g
AUC(0−∞) ([2]; IV 1 mg/kg): 741.29 ng·h/g
AUC(0−t) ([2]; PO 6 mg/kg): 6454.78 ng·h/g
AUC(0−∞) ([2]; PO 6 mg/kg): 7477.48 ng·h/g

O=C(O)[C@@H]1C[C@H]1c1ccc(Cn2cnc(F)c2)cc1F [Compound 17, (1R,2R)-2-(2-Fluoro-4-((4-fluoro-1H-imidazol-1-yl)methyl)phenyl)cyclopropane-1-carboxylic acid]
Bleeding time ([1]; high dose 12 mg/kg i.v.): 338.38 s
Brain water content (%) ([1]; high dose 12 mg/kg i.v.): 80.34 ± 1.65%
Cerebral infarction rate (%) ([1]; high dose 12 mg/kg i.v.): 17.37%
Clotting time ([1]; high dose 12 mg/kg i.v.): 163.00 ± 29.03 s
Neurological function score ([1]; high dose 12 mg/kg i.v.): 1.63 ± 0.74
cerebral edema in rats ([1]; low and medium doses): did not significantly improve
Bleeding time ([1]; low dose 3 mg/kg i.v.): 290.75 ± 79.23 s
Brain water content (%) ([1]; low dose 3 mg/kg i.v.): 82.47 ± 3.03 %
Cerebral infarction rate (%) ([1]; low dose 3 mg/kg i.v.): 30.61 ± 5.72%
Clotting time ([1]; low dose 3 mg/kg i.v.): 141.25 ± 28.04 s
Neurological function score ([1]; low dose 3 mg/kg i.v.): 2.25 ± 0.71
Bleeding time [1, 3]: 307.50 ± 64.66 s
Brain water content (%) [1, 3]: 81.96 ± 2.16 %
Cerebral infarction rate (%) [1, 3]: 22.75%
Clotting time [1, 3]: 155.00 ± 29.81 s
Neurological function score [1, 3]: 1.88 ± 0.83
Cmax ([2]; IV 1 mg/kg): 84.1 ng/g
Tmax ([2]; IV 1 mg/kg): 4.8 min
half-life ([2]; IV 1 mg/kg): 223 min
MRT last ([2]; IV 1 mg/kg): 2.53 h
MRT inf ([2]; IV 1 mg/kg): 4.7 h
Cmax ([2]; PO 6 mg/kg): 323 ng/g
Tmax ([2]; PO 6 mg/kg): 120 min
half-life ([2]; PO 6 mg/kg): 169 min
MRT last ([2]; PO 6 mg/kg): 4.53 h
MRT inf ([2]; PO 6 mg/kg): 4.6 h
T1/2 and AUC(0-∞) in the brain tissue ([2]; intravenously at 1 mg/kg): significantly increased
T1/2 and AUC(0-∞) in the brain tissue ([2]; orally at 6 mg/kg): significantly increased
AUC(0−t) ([2]; IV 1 mg/kg): 169.74 ng·h/g
AUC(0−∞) ([2]; IV 1 mg/kg): 212.39 ng·h/g
AUC(0−t) ([2]; PO 6 mg/kg): 2329.55 ng·h/g
AUC(0−∞) ([2]; PO 6 mg/kg): 2336.46 ng·h/g
